Laboratory results from paper PMC9598367, “Discovery and Preliminary Structure-Activity Investigation of 3-Substituted-1H-imidazol-5-yl-1H-indoles with In Vitro Activity towards Methicillin-Resistant Staphylococcus aureus” (Antibiotics, 2022).
Converted amounts (≈) assume the structure as drawn.

System: not given
Assay: not given
Conditions: not given

Row | Molecule | melting point
1 | Clc1ccc2c(-c3cncn3CCc3ccc4c(c3)OCO4)c[nH]c2c1 [Compound 40, 3-(1-(2-(Benzo[d][1,3]dioxol-5-yl)ethyl)-1H-imidazol-5-yl)-6-chloro-1H-indole] | 180 to 181 °C
2 | CCCCCn1cncc1-c1c[nH]c2c(Cl)cccc12 [Compound 93, 7-Chloro-3-(1-pentyl-1H-imidazol-5-yl)-1H-indole] | 122 to 123 °C
3 | Brc1ccc2c(-c3cncn3Cc3ccc(I)cc3)c[nH]c2c1 [Compound 10, 6-Bromo-3-(1-(4-iodobenzyl)-1H-imidazol-5-yl)-1H-indole] | > 200 °C
4 | Brc1cccc2[nH]cc(-c3cncn3Cc3c[nH]c4ccccc34)c12 [Compound 78, 3-(1-((1H-Indol-3-yl)methyl)-1H-imidazol-5-yl)-4-bromo-1H-indole] | 201 to 202 °C
5 | Fc1cccc2c(-c3cncn3CCc3c[nH]c4ccccc34)c[nH]c12 [Compound 82, 3-(1-(2-(1H-Indol-3-yl)ethyl)-1H-imidazol-5-yl)-7-fluoro-1H-indole] | > 230 °C
6 | c1ccc(Cn2cncc2-c2ccccc2)cc1 [Compound 103, 1-Benzyl-5-phenyl-1H-imidazole] | 99 to 100 °C
7 | Fc1cccc2c(-c3cncn3Cc3c[nH]c4ccccc34)c[nH]c12 [Compound 74, 3-(1-((1H-Indol-3-yl)methyl)-1H-imidazol-5-yl)-7-fluoro-1H-indole] | 186 to 187 °C
8 | CCCCCn1cncc1-c1c[nH]c2cccc(Br)c12 [Compound 94, 4-Bromo-3-(1-pentyl-1H-imidazol-5-yl)-1H-indole] | 207 to 208 °C
9 | Fc1ccc2[nH]cc(-c3cncn3CCc3ccc4c(c3)OCO4)c2c1 [Compound 37, 3-(1-(2-(Benzo[d][1,3]dioxol-5-yl)ethyl)-1H-imidazol-5-yl)-5-fluoro-1H-indole] | > 200 °C
10 | Fc1cccc2[nH]cc(-c3cncn3CCc3c[nH]c4ccccc34)c12 [Compound 81, 3-(1-(2-(1H-Indol-3-yl)ethyl)-1H-imidazol-5-yl)-4-fluoro-1H-indole] | > 230 °C
11 | COc1ccc(CCn2cncc2-c2c[nH]c3cccc(F)c23)cc1 [Compound 66, 4-Fluoro-3-(1-(4-methoxyphenethyl)-1H-imidazol-5-yl)-1H-indole] | 56 to 57 °C
12 | Brc1cccc2[nH]cc(-c3cncn3CCc3c[nH]c4ccccc34)c12 [Compound 86, 3-(1-(2-(1H-Indol-3-yl)ethyl)-1H-imidazol-5-yl)-4-bromo-1H-indole] | > 230 °C
13 | Fc1cccc2[nH]cc(-c3cncn3Cc3c[nH]c4ccccc34)c12 [Compound 73, 3-(1-((1H-Indol-3-yl)methyl)-1H-imidazol-5-yl)-4-fluoro-1H-indole] | 164 to 165 °C
14 | COc1ccc(CCn2cncc2-c2c[nH]c3cc(OC)ccc23)cc1 [Compound 72, 6-Methoxy-3-(1-(4-methoxyphenethyl)-1H-imidazol-5-yl)-1H-indole] | 45 to 46 °C
15 | COc1ccc(CCn2cncc2-c2c[nH]c3c(Cl)cccc23)cc1 [Compound 69, 7-Chloro-3-(1-(4-methoxyphenethyl)-1H-imidazol-5-yl)-1H-indole] | 59 to 60 °C

Further lines, results first:

Row | melting point | Molecule
16 | 179 to 180 °C | COc1ccc(Cn2cncc2-c2c[nH]c3c(F)cccc23)cc1 [Compound 60, 7-Fluoro-3-(1-(4-methoxybenzyl)-1H-imidazol-5-yl)-1H-indole]
17 | 95 to 96 °C | COc1ccc2c(-c3cncn3Cc3c[nH]c4ccccc34)c[nH]c2c1 [Compound 80, 3-(1-((1H-Indol-3-yl)methyl)-1H-imidazol-5-yl)-6-methoxy-1H-indole]
18 | 91 to 92 °C | Clc1ccc2c(-c3cncn3CCc3ccccc3)c[nH]c2c1 [Compound 20, 6-Chloro-3-(1-phenethyl-1H-imidazol-5-yl)-1H-indole]
19 | 187 to 188 °C | Fc1ccc2[nH]cc(-c3cncn3Cc3ccc(I)cc3)c2c1 [Compound 5, 5-Fluoro-3-(1-(4-iodobenzyl)-1H-imidazol-5-yl)-1H-indole]
20 | 92 to 93 °C | COc1ccc(Cn2cncc2-c2c[nH]c3cccc(Br)c23)cc1 [Compound 63, 4-Bromo-3-(1-(4-methoxybenzyl)-1H-imidazol-5-yl)-1H-indole]
21 | 181 to 182 °C | COc1ccc(Cn2cncc2-c2c[nH]c3ccc(F)cc23)cc1 [Compound 12, 5-Fluoro-3-(1-(4-methoxybenzyl)-1H-imidazol-5-yl)-1H-indole]
22 | 66 to 67 °C | COc1ccc(Cn2cncc2-c2c[nH]c3cccc(F)c23)cc1 [Compound 59, 4-Fluoro-3-(1-(4-methoxybenzyl)-1H-imidazol-5-yl)-1H-indole]
23 | 178 to 179 °C | COc1ccc(Cn2cncc2-c2c[nH]c3cc(Cl)ccc23)cc1 [Compound 15, 6-Chloro-3-(1-(4-methoxybenzyl)-1H-imidazol-5-yl)-1H-indole]
24 | 198 to 199 °C | Clc1cccc2[nH]cc(-c3cncn3Cc3ccccc3)c12 [Compound 45, 3-(1-Benzyl-1H-imidazol-5-yl)-4-chloro-1H-indole]
25 | > 200 °C | Clc1ccc2[nH]cc(-c3cncn3Cc3ccc(I)cc3)c2c1 [Compound 7, 5-Chloro-3-(1-(4-iodobenzyl)-1H-imidazol-5-yl)-1H-indole]
26 | 179 to 180 °C | Fc1cccc2c(-c3cncn3Cc3ccccc3)c[nH]c12 [Compound 44, 3-(1-Benzyl-1H-imidazol-5-yl)-7-fluoro-1H-indole]
27 | 201 to 202 °C | Brc1cccc2[nH]cc(-c3cncn3Cc3ccccc3)c12 [Compound 48, 3-(1-Benzyl-1H-imidazol-5-yl)-4-bromo-1H-indole]
28 | 220 to 221 °C | COc1ccc(Cn2cncc2-c2c[nH]c3c(Cl)cccc23)cc1 [Compound 62, 7-Chloro-3-(1-(4-methoxybenzyl)-1H-imidazol-5-yl)-1H-indole]
29 | 152 to 153 °C | COc1ccc(-c2cncn2Cc2c[nH]c3ccccc23)cc1 [Compound 112, 3-((5-(4-Methoxyphenyl)-1H-imidazol-1-yl)methyl)-1H-indole]
30 | 83 to 84 °C | COc1ccc(-c2cncn2Cc2ccccc2)cc1 [Compound 104, 1-Benzyl-5-(4-methoxyphenyl)-1H-imidazole]
31 | 74 to 75 °C | COc1ccc(Cn2cncc2-c2c[nH]c3cccc(Cl)c23)cc1 [Compound 61, 4-Chloro-3-(1-(4-methoxybenzyl)-1H-imidazol-5-yl)-1H-indole]
32 | 65 to 66 °C | COc1ccc2[nH]cc(-c3cncn3Cc3ccccc3)c2c1 [Compound 49, 3-(1-Benzyl-1H-imidazol-5-yl)-5-methoxy-1H-indole]
33 | 152 to 153 °C | COc1ccc(CCn2cncc2-c2c[nH]c3ccc(F)cc23)cc1 [Compound 24, 5-Fluoro-3-(1-(4-methoxyphenethyl)-1H-imidazol-5-yl)-1H-indole]
34 | 193 to 194 °C | COc1ccc(Cn2cncc2-c2c[nH]c3ccc(Cl)cc23)cc1 [Compound 14, 5-Chloro-3-(1-(4-methoxybenzyl)-1H-imidazol-5-yl)-1H-indole]
35 | 48 to 49 °C | COc1ccc(CCn2cncc2-c2c[nH]c3ccc(OC)cc23)cc1 [Compound 71, 5-Methoxy-3-(1-(4-methoxyphenethyl)-1H-imidazol-5-yl)-1H-indole]
36 | 169 to 170 °C | COc1ccc(-c2cncn2CCc2c[nH]c3ccccc23)cc1 [Compound 114, 3-(2-(5-(4-Methoxyphenyl)-1H-imidazol-1-yl)ethyl)-1H-indole]
37 | 107 to 108 °C | Clc1ccc2[nH]cc(-c3cncn3Cc3c[nH]c4ccccc34)c2c1 [Compound 76, 3-(1-((1H-Indol-3-yl)methyl)-1H-imidazol-5-yl)-5-chloro-1H-indole]
38 | 197 to 198 °C | COc1ccc(Cn2cncc2-c2c[nH]c3ccc(Br)cc23)cc1 [Compound 16, 5-Bromo-3-(1-(4-methoxybenzyl)-1H-imidazol-5-yl)-1H-indole]

System: human red blood cells
Assay: Hemolytic assay
Type: cell-based
Conditions: concentration at 10% hemolytic activity on human red blood cells; mean (n = 2)
Description: Human whole blood was washed three times with 3 volumes of 0.9% NaCl and then resuspended in same to a concentration of 0.5 × 10^8 cells/mL, as determined by manual cell count in a Neubauer hemocytometer. The washed cells were then added to the 384-well compound-containing plates for a final volume of 50 μL. After a 10 min shake on a plate shaker the plates were then incubated for 1 h at 37 °C. After incubation, the plates were centrifuged at 1000 g for 10 min to pellet cells and debris, 25 μL of the supernatant was then transferred to a polystyrene 384-well assay plate. Hemolysis was determined by measuring the supernatant absorbance at […] (OD405). The absorbance was measured using a Tecan M1000 Pro monochromator plate reader. HC10 and HC50 (concentration at 10% and 50% hemolysis, respectively) were calculated by curve fitting the inhibition values vs. log(concentration) using a sigmoidal dose–response function with variable fitting values for top, bottom and slope.

Row | Molecule | HC10
39 | Melittin [reference compound] | 2.7 µg/mL

System: Cryptococcus neoformans ATCC208821
Assay: Antifungal MIC, C. neoformans
Type: cell-based
Conditions: Cryptococcus neoformans ATCC208821; mean (n = 2)
Description: For the antifungal assay, fungi strains were cultured for 3 days on yeast extract-peptone dextrose (YPD) agar at 30 °C. A yeast suspension of 1 × 10^6 to 5 × 10^6 CFU/mL was prepared from five colonies. These stock suspensions were diluted with yeast nitrogen base (YNB) (Becton Dickinson, 233520) broth to a final concentration of 2.5 × 10^3 CFU/mL. The compounds were serially diluted 2-fold across the wells of 96-well plates (Corning 3641, nonbinding surface), with compound concentrations ranging from 0.015 to 64 μg/mL and final volumes of 50 μL, plated in duplicate. Then, 50 μL of the fungi suspension that was previously prepared in YNB broth to the final concentration of 2.5 × 10^3 CFU/mL was added to each well of the compound-containing plates, giving a final compound concentration range of 0.008 to 32 μg/mL. Plates were covered and incubated at 35 °C for 36 h without shaking. C. albicans MICs were determined by measuring the absorbance at OD530. For C. neoformans, resazurin was added at 0.006% final concentration to each well and incubated for a further 3 h before MICs were determined by measuring the absorbance at OD570–600.
Colistin and vancomycin were used as positive bacterial inhibitor standards for Gram-negative and Gram-positive bacteria, respectively. Fluconazole was used as a positive fungal inhibitor standard for C. albicans and C. neoformans. The antibiotics were provided in 4 concentrations, with 2 above and 2 below its MIC value, and plated into the first 8 wells of column 23 of the 384-well NBS plates. The quality control (QC) of the assays was determined by the antimicrobial controls and the Z′-factor (using positive and negative controls).

Row | MIC | Molecule
40 | 8 µg/mL (≈ 26.1 µM) | OC(Cn1cncn1)(Cn1cncn1)c1ccc(F)cc1F [fluconazole, reference compound]
